Data published in patent publication US20190314382A1, “COMPOUNDS AND PHARMACEUTICAL COMPOSITIONS THEREOF FOR THE TREATMENT OF INFLAMMATORY DISEASES” (Galapagos NV, priority 2016, published 2019).

Columns and labels:
Assay type in all cases: in vivo, human
Settings in all cases: observed case
IL-6 = assay: Biomarker study in RA subjects: serum IL-6, Luminex 18-Plex
Experimental: (§1) Double-blind, placebo-controlled add on study in subjects with moderately to severely active RA who have an inadequate response to MTX (oral or parenteral).
(§2) 595 subjects randomized to one of 6 dose regimens of Compound 1 (dosed as a [Compound 1:HCl:3H2O]) (3 dose levels administered either once or twice daily) or placebo on top of each subject's stable dose of MTX.
(§3) Compound 1 (dosed as a [Compound 1:HCl:3H2O]) is dosed for twelve weeks once daily (q.d.) (50 mg, 100 mg or 200 mg) or twice daily (b.i.d.) (25 mg, 50 mg or 100 mg); or placebo.
(§4) 18 parameters from human serum samples (GM-CSF, IFNγ, IL-1β, IL-2, IL-4, IL-5, IL-6, IL-7, IL-8, IL-10, IL-12 (p70), IL-13, IL-17A, IL-21, IL-23, MIP-1α, MIP-1β and TNF-α) are analyzed on a Luminex Plateform (BioPlex® L200) using a Luminex 18-Plex Kit (Millipore: HSTCMAG-28SK).
(§5) Coupled beads react with the sample containing the biomarker of interest. […] Phycoerythrin (PE) serves as a fluorescent indicator.
(§6) The concentration of bead bound analyte is proportional to the MFI (Median Fluorescent Intensity) and back-calculated from interpolation with the calibration curve fitted with a 4 or 5 parameters logistic (4PL or 5PL) regression model selected during method pre-validation.
(§7) Treatment effect was assessed using an ANCOVA model on the changes from baseline, with factors: treatment, baseline value of the PD marker, geographical region and previous use of biologics.

IL-13 = assay: Biomarker study in RA subjects: serum IL-13, Luminex 18-Plex
Experimental: as §1, §2, §3, §4, §5, §6, §7

IL-21 = assay: Biomarker study in RA subjects: serum IL-21, Luminex 18-Plex
Experimental: as §1, §2, §3, §4, §5, §6, §7

MIP-1β = assay: Biomarker study in RA subjects: serum MIP-1β, Luminex 18-Plex
Experimental: as §1, §2, §3, §4, §5, §6, §7

GM-CSF = assay: Biomarker study in RA subjects: serum GM-CSF, Luminex 18-Plex
Experimental: as §1, §2, §3, §4, §5, §6, §7

IL-8 = assay: Biomarker study in RA subjects: serum IL-8, Luminex 18-Plex
Experimental: as §1, §2, §3, §4, §5, §6, §7

IL-23 = assay: Biomarker study in RA subjects: serum IL-23, Luminex 18-Plex
Experimental: as §1, §2, §3, §4, §5, §6, §7

[1] = 100 mg bid, Week 12, N = 79, RA subjects on MTX
[2] = 100 mg qd, Week 4, N = 68, RA subjects on MTX
[3] = 100 mg qd, Week 12, N = 68, RA subjects on MTX
[4] = 200 mg qd, Week 4, N = 75, RA subjects on MTX
[5] = 200 mg qd, Week 12, N = 75, RA subjects on MTX
[6] = 50 mg bid, Week 4, N = 73, RA subjects on MTX
[7] = 50 mg bid, Week 12, N = 73, RA subjects on MTX
[8] = 100 mg bid, Week 4, N = 79, RA subjects on MTX

## O=C(Nc1nc2cccc(-c3ccc(CN4CCS(=O)(=O)CC4)cc3)n2n1)C1CC1 [Compound 1, cyclopropanecarboxylic acid {5-[4-(1,1-dioxo-thiomorpholin-4-ylmethyl)-phenyl]-[1,2,4]triazolo[1,5-a]pyridin-2yl}-amide]
IL-6; [1]
  IL-6 Mean change from baseline at Week 12: -14.1 pg/mL
IL-6; [2]
  IL-6 Mean change from baseline at Week 4: -7.0 pg/mL
IL-6; [3]
  IL-6 Mean change from baseline at Week 12: -8.0 pg/mL
IL-6; [4]
  IL-6 Mean change from baseline at Week 4: -9.6 pg/mL
IL-6; [5]
  IL-6 Mean change from baseline at Week 12: -11.2 pg/mL
IL-13; [6]
  IL-13 Mean change from baseline at Week 4: -0.6 pg/mL
IL-13; [7]
  IL-13 Mean change from baseline at Week 12: -1.1 pg/mL
IL-13; [8]
  IL-13 Mean change from baseline at Week 4: -1.5 pg/mL
IL-13; [1]
  IL-13 Mean change from baseline at Week 12: -2.9 pg/mL
IL-13; [2]
  IL-13 Mean change from baseline at Week 4: -0.6 pg/mL
IL-13; [3]
  IL-13 Mean change from baseline at Week 12: -1.5 pg/mL
IL-13; [4]
  IL-13 Mean change from baseline at Week 4: -0.9 pg/mL
IL-13; [5]
  IL-13 Mean change from baseline at Week 12: -2.2 pg/mL
IL-21; [6]
  IL-21 Mean change from baseline at Week 4: -0.1 pg/mL
IL-21; [7]
  IL-21 Mean change from baseline at Week 12: -1.6 pg/mL
IL-21; [8]
  IL-21 Mean change from baseline at Week 4: -1.6 pg/mL
IL-21; [1]
  IL-21 Mean change from baseline at Week 12: -2.8 pg/mL
IL-21; [2]
  IL-21 Mean change from baseline at Week 4: -0.3 pg/mL
IL-21; [3]
  IL-21 Mean change from baseline at Week 12: 0.5 pg/mL
IL-21; [4]
  IL-21 Mean change from baseline at Week 4: -1.4 pg/mL
IL-21; [5]
  IL-21 Mean change from baseline at Week 12: -2.3 pg/mL
MIP-1β; [6]
  MIP-1β Mean change from baseline at Week 4: 0.4 pg/mL
MIP-1β; [7]
  MIP-1β Mean change from baseline at Week 12: -1.1 pg/mL
MIP-1β; [8]
  MIP-1β Mean change from baseline at Week 4: -2.1 pg/mL
MIP-1β; [1]
  MIP-1β Mean change from baseline at Week 12: -1.3 pg/mL
MIP-1β; [2]
  MIP-1β Mean change from baseline at Week 4: -0.7 pg/mL
MIP-1β; [3]
  MIP-1β Mean change from baseline at Week 12: -1.7 pg/mL
MIP-1β; [4]
  MIP-1β Mean change from baseline at Week 4: -1.6 pg/mL
MIP-1β; [5]
  MIP-1β Mean change from baseline at Week 12: -1.5 pg/mL
GM-CSF; [6]
  GM-CSF Mean change from baseline at Week 4: -5.4 pg/mL
GM-CSF; [7]
  GM-CSF Mean change from baseline at Week 12: -14.4 pg/mL
GM-CSF; [8]
  GM-CSF Mean change from baseline at Week 4: -12.4 pg/mL
GM-CSF; [1]
  GM-CSF Mean change from baseline at Week 12: -21.1 pg/mL
GM-CSF; [2]
  GM-CSF Mean change from baseline at Week 4: -9.3 pg/mL
GM-CSF; [3]
  GM-CSF Mean change from baseline at Week 12: -19.5 pg/mL
GM-CSF; [4]
  GM-CSF Mean change from baseline at Week 4: -8.4 pg/mL
GM-CSF; [5]
  GM-CSF Mean change from baseline at Week 12: -15.0 pg/mL
IL-8; [6]
  IL-8 Mean change from baseline at Week 4: 2.3 pg/mL
IL-8; [7]
  IL-8 Mean change from baseline at Week 12: 6.9 pg/mL
IL-8; [8]
  IL-8 Mean change from baseline at Week 4: -1.8 pg/mL
IL-8; [1]
  IL-8 Mean change from baseline at Week 12: 2.4 pg/mL
IL-8; [2]
  IL-8 Mean change from baseline at Week 4: 4.1 pg/mL
IL-8; [3]
  IL-8 Mean change from baseline at Week 12: 0.7 pg/mL
IL-8; [4]
  IL-8 Mean change from baseline at Week 4: -2.0 pg/mL
IL-8; [5]
  IL-8 Mean change from baseline at Week 12: -1.6 pg/mL
IL-23; [6]
  IL-23 Mean change from baseline at Week 4: -772.1 pg/mL
IL-23; [7]
  IL-23 Mean change from baseline at Week 12: -888.7 pg/mL
IL-23; [8]
  IL-23 Mean change from baseline at Week 4: -273.6 pg/mL
IL-23; [1]
  IL-23 Mean change from baseline at Week 12: -831.6 pg/mL
IL-23; [2]
  IL-23 Mean change from baseline at Week 4: 38.3 pg/mL
IL-23; [3]
  IL-23 Mean change from baseline at Week 12: -337.9 pg/mL
IL-23; [4]
  IL-23 Mean change from baseline at Week 4: -435.8 pg/mL
IL-23; [5]
  IL-23 Mean change from baseline at Week 12: -949.7 pg/mL
